Target: T1, human H4 receptor (Homo sapiens, UniProt Q9H3N8)
T1 construct: expressed in transfected cells
Assay: [3H]Histamine binding on membranes of CHO cells stably expressing human H4 receptor
Conditions: not given
Outline: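 Filter-bound counts (liquid scintillation) gave H4 binding. Incubation used 20 μg membrane protein/well in Tris/HCl 50 mM plus EDTA 0.5 mM at pH 7.4, and 10 μM JNJ 7777120 set nonspecific binding. Filtration on GF/B pretreated with polyethyleneimine stopped the reaction.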

Compound	Ki or IC50 activity class
CN1CCC(NC(c2cccc(OCc3ccccc3F)c2)c2nc3ccccc3[nH]2)CC1 (centres unmarked) [Example 113, {(1H-benzimidazol-2-yl)[3-(2-fluorobenzyloxy)phenyl]methyl}(1-methylpiperidin-4-yl)amine]	< 30 nM
CC(=O)c1cccc(-c2cccc(C(OC3CCN(C)CC3)c3nc4ccccc4[nH]3)c2)c1 (centres unmarked) [Example 110, 1-{3′-[(1H-benzimidazol-2-yl)(1-methylpiperidin-4-yloxy)methyl]biphenyl-3-yl}ethanone]	< 300 nM
CN1CCC(OC(c2cccc(CCc3cn(C)cn3)c2)c2nc3ccccc3s2)CC1 (centres unmarked) [Example 306, 2-[{3-[2-(1-methyl-1H-imidazol-4-yl)ethyl]phenyl}(1-methylpiperidin-4-yloxy)methyl]benzothiazole]	< 300 nM
CN1CCC(OC(c2cccc(CO)c2)c2nc3ccccc3s2)CC1 (centres unmarked) [Example 207, {3-[benzothiazol-2-yl(1-methylpiperidin-4-yloxy)methyl]phenyl}methanol]	< 1000 nM
CN1CCC(OC(c2cccc(CCCN)c2)c2nc3ccccc3[nH]2)CC1 (centres unmarked) [Example 303, 3-{3-[(1H-benzimidazol-2-yl)(1-methylpiperidin-4-yloxy)methyl]phenyl}propylamine]	< 300 nM
CN1CCC(OC(c2cccc(-c3ccc(Cl)c(Cl)c3)c2)c2nc3ccccc3s2)CC1 (centres unmarked) [Example 133, 2-[(3′,4′-dichlorobiphenyl-3-yl)(1-methylpiperidin-4-yloxy)methyl]benzothiazole]	< 300 nM
CN1CCC(OC(c2cccc(-c3cccc(CO)c3)c2)c2nc3ccccc3s2)CC1 (centres unmarked) [Example 54]	< 300 nM
CN1CCC(OC(c2cccc(OCc3ccccc3)c2)c2nc3ccccc3s2)CC1 (centres unmarked) [Example 45, 2-[(3-benzyloxyphenyl)(1-methylpiperidin-4-yloxy)methyl]benzothiazole]	< 30 nM
CN1CCC(NC(c2cccc(F)c2)c2nc3ccccc3[nH]2)CC1 (centres unmarked) [Example 74, [(1H-benzimidazol-2-yl)(3-fluorophenyl)methyl](1-methylpiperidin-4-yl)amine]	< 300 nM
COC(=O)CSc1cccc(C(OC2CCN(C)CC2)c2nc3ccccc3[nH]2)c1 (centres unmarked) [Example 154, {3-[(1H-benzimidazol-2-yl)(1-methylpiperidin-4-yloxy)methyl]phenylsulfanyl}acetic acid methyl ester]	< 300 nM
CN1CCC(OC(c2cccc(OCc3ccco3)c2)c2nc3ccccc3s2)CC1 (centres unmarked) [Example 267, 2-[[3-(furan-2-ylmethoxy)phenyl](1-methylpiperidin-4-yloxy)methyl]benzothiazole]	< 30 nM
C=Cc1cccc(C(OC2CCN(C)CC2)c2nc3ccccc3[nH]2)c1 (centres unmarked) [Example 245, 2-[(1-methylpiperidin-4-yloxy)(3-vinyl-phenyl)methyl]-1H-benzimidazole]	< 300 nM
CN1CCC(OC(c2cccc(I)c2)c2nc3ccccc3s2)CC1 (single isomer, unassigned) [Example 117, 2-[(3-iodophenyl)(1-methylpiperidin-4-yloxy)methyl]benzothiazole]	< 30 nM
CN1CCC(NC(c2cccc(I)c2)c2nc3ccccc3s2)CC1 (centres unmarked) [Example 48, [benzothiazol-2-yl(3-iodophenyl)methyl](1-methylpiperidin-4-yl)amine]	< 300 nM
CN1CCC(OC(c2cccc(SCCNC3=NCCS3)c2)c2nc3ccccc3[nH]2)CC1 (centres unmarked) [Example 299, (2-{3-[(1H-benzimidazol-2-yl)(1-methylpiperidin-4-yloxy)methyl]phenyl-sulfanyl}ethyl)(4,5-dihydrothiazol-2-yl)amine]	< 1000 nM
CN1CCC(OC(c2cccc(-c3cccc(N)c3)c2)c2nc3ccccc3[nH]2)CC1 (centres unmarked) [Example 87, 3′-[(1H-benzimidazol-2-yl)(1-methylpiperidin-4-yloxy)methyl]biphenyl-3-ylamine]	< 300 nM
CCCCCOc1cccc(C(NC2CCN(C)CC2)c2nc3ccccc3[nH]2)c1 (centres unmarked) [Example 95, [(1H-benzimidazol-2-yl)(3-pentyloxyphenyl)methyl](1-methylpiperidin-4-yl)amine]	< 30 nM
CN1CCC(OC(c2cccc(SCCn3ccnn3)c2)c2nc3ccccc3s2)CC1 (centres unmarked) [Example 241, 2-{(1-methylpiperidin-4-yloxy)[3-(2-[1,2,3]triazol-1-yl-ethylsulfanyl)phenyl]methyl}benzothiazole]	< 300 nM
CN1CCC(OC(c2cccc(C#CCCN)c2)c2nc3ccccc3s2)CC1 (centres unmarked) [Example 282, 4-{3-[benzothiazol-2-yl(1-methylpiperidin-4-yloxy)methyl]phenyl}but-3-ynylamine]	< 1000 nM
CN1CCC(OC(c2ccc3c(c2)CCO3)c2nc3ccccc3s2)CC1 (centres unmarked) [Example 32, 2-[(2,3-dihydrobenzofuran-5-yl)(1-methylpiperidin-4-yloxy)methyl]benzothiazole]	< 300 nM
CN1CCC(OC(c2cccc(C#CCCCCNC(=N)NC(=O)OC(C)(C)C)c2)c2nc3ccccc3[nH]2)CC1 (centres unmarked) [Example 345, N-tert-butoxycarbonyl-N′-(6-{3-[(1H-benzimidazol-2-yl)(1-methylpiperidin-4-yloxy)methyl]phenyl}hex-5-ynyl)guanidine]	< 300 nM
CC(C)NC(=S)NCCSc1cccc(C(OC2CCN(C)CC2)c2nc3ccccc3[nH]2)c1 (centres unmarked) [Example 347, 1-(2-{3-[(1H-benzimidazol-2-yl)(1-methylpiperidin-4-yloxy)methyl]phenylsulfanyl}ethyl)-3-isopropylthiourea]	< 1000 nM
CN1CCC(OC(c2cccc(C#N)c2)c2nc3ccccc3s2)CC1 (centres unmarked) [Example 197, 3-[benzothiazol-2-yl(1-methylpiperidin-4-yloxy)methyl]benzonitrile]	< 30 nM
CN1CCC(OC(c2cccc(OCC3CCCCC3)c2)c2nc3ccccc3s2)CC1 (centres unmarked) [Example 285, 2-[(3-Cyclohexylmethoxyphenyl)(1-methylpiperidin-4-yloxy)methyl]benzothiazole]	< 1000 nM
CN1CCC(OC(c2cccc(-n3cccn3)c2)c2nc3ccccc3s2)CC1 (centres unmarked) [Example 147, 2-[(1-methylpiperidin-4-yloxy)(3-pyrazol-1-ylphenyl)methyl]benzothiazole]	< 300 nM

Now from value to compound:

Ki or IC50 activity class	Compound
< 30 nM	CN1CCC(OC(c2cccc(OC3CCNC3)c2)c2nc3ccccc3s2)CC1 (centres unmarked) [Example 382, 2-{(1-methylpiperidin-4-yloxy)[3-(pyrrolidin-3-yloxy)phenyl]methyl}benzothiazole]
< 1000 nM	CN1CCC(OC(c2ccc(F)c(OC(F)(F)F)c2)c2nc3ccccc3[nH]2)CC1 (centres unmarked) [Example 518]
< 30 nM	CN1CCC(OC(c2ccc3ccsc3c2)c2nc3ccccc3[nH]2)CC1 (centres unmarked) [Example 556, 2-[benzo[b]thiophen-6-yl(1-methylpiperidin-4-yloxy)methyl]-1H-benzimidazole]
< 300 nM	CN1CCC(OC(c2cccc(SCCCCNC(=N)N)c2)c2nc3ccccc3[nH]2)CC1 (centres unmarked) [Example 444, N-(4-{3-[(1H-benzimidazol-2-yl)(1-methylpiperidin-4-yloxy)methyl]phenylsulfanyl}butyl)guanidine]
< 30 nM	CN1CC(COC(c2cccc(SCCCCN)c2)c2nc3ccccc3[nH]2)C1 (centres unmarked) [Example 507, 4-{3-[(1H-benzimidazol-2-yl)(1-methylazetidin-3-ylmethoxy)methyl]phenylsulfanyl}butylamine]
< 30 nM	CN1CCC(OC(c2cccc(C#CCNC(=N)N)c2)c2nc3ccccc3s2)CC1 (centres unmarked) [Example 373, N-(3-{3-[benzothiazol-2-yl(1-methylpiperidin-4-yloxy)methyl]phenyl}prop-2-ynyl)guanidine]
< 1000 nM	CN1CCC(OC(c2cccc(C#CCCCn3ccnn3)c2)c2nc3ccccc3[nH]2)CC1 (centres unmarked) [Example 417, 2-{(1-methylpiperidin-4-yloxy)[3-(5-[1,2,3]triazol-1-ylpent-1-ynyl)phenyl]methyl}-1H-benzimidazole]
< 1000 nM	CCOCCn1c(C(OC2CCN(C)CC2)c2cccc(I)c2)nc2ccccc21 (centres unmarked) [Example 497, 1-(2-ethoxyethyl)-2-[(3-iodophenyl)(1-methylpiperidin-4-yloxy)methyl]-1H-benzimidazole]
< 30 nM	CN1CCC(OC(c2nc3ccccc3[nH]2)c2cc(O)ccc2F)CC1 (centres unmarked) [Example 487]
< 300 nM	CN1CCC(OC(c2cccc(SCCCCCCNC(=N)N)c2)c2nc3ccccc3[nH]2)CC1 (centres unmarked) [Example 458]
< 30 nM	CN1CCC(OC(c2cccc(N3CCCC3CN)c2)c2nc3ccccc3s2)CC1 (centres unmarked) [Example 482]
< 300 nM	CN1CCC(OC(c2cccc(CCCCCCNC(=N)N)c2)c2nc3ccccc3s2)CC1 (centres unmarked) [Example 363, N-(6-{3-[benzothiazol-2-yl(1-methylpiperidin-4-yloxy)methyl]phenyl}hexyl)guanidine]
< 30 nM	CN1CCC(OC(c2cccc(OC3CC4CNCC4C3)c2)c2nc3ccccc3s2)CC1 (centres unmarked) [Example 466]
< 30 nM	Cc1ccc(C(OC2CCN(C)CC2)c2nc3ccccc3[nH]2)c(F)c1 (centres unmarked) [Example 513]
< 1000 nM	CN1CCC(OC(c2cccc(OCCCN3CCOCC3)c2)c2nc3ccccc3s2)CC1 (centres unmarked) [Example 350, 2-{(1-methylpiperidin-4-yloxy)[3-(3-morpholin-4-yl-propoxy)phenyl]methyl}benzothiazole]
< 30 nM	CN1CCC(COC(c2cccc(Br)c2)c2nc3ccccc3s2)C1 (single isomer, unassigned) [Example 464]
< 30 nM	CN1CCC(OC(c2nc3ccccc3[nH]2)c2cc(C#CCCCN)ccc2F)CC1 (centres unmarked) [Example 442]

Same assay, conditions: human H4 receptor; evaluated in the GTPγ[35S] assay or in the [3H]histamine binding assay (not stated which per compound); Ki or IC50 class

Ki or IC50 activity class	Compound
< 300 nM	CN1CCC(OC(c2cccc(N3CCC(N)C3)c2)c2nc3ccccc3s2)CC1 (centres unmarked) [Example 429, 1-{3-[benzothiazol-2-yl(1-methylpiperidin-4-yloxy)methyl]phenyl}pyrrolidin-3-ylamine]
< 30 nM	CN1CCC(OC(c2cccc(SCC=CCN)c2)c2nc3ccccc3[nH]2)CC1 (centres unmarked) [Example 474]

— US8802664B2 (Bioproject, priority 2010, dated 2014)
